{
  "source": "patent US6066649A",
  "about": "“Drug for cardiovascular diseases” (Podzuweit; Thomas, priority 1992, dated 2000)",
  "key": {"[1]": {"biological_target": "human ADA", "details": "read-out: K1 value for human ADA; racemic (±)-EHNA; cited from earlier work"}, "[2]": {"biological_target": "T1, cGMP-stimulated PDE II (Homo sapiens, UniProt O00408)", "T1 construct": "cytosolic cGMP-stimulated PDE II isoenzyme from human myocardium; from tissue; host or cells: human left ventricular papillary muscle, soluble extract, DEAE-Sepharose CL-6B peak fraction", "T1 sequence (O00408 1-920 isoform O00408-2)": "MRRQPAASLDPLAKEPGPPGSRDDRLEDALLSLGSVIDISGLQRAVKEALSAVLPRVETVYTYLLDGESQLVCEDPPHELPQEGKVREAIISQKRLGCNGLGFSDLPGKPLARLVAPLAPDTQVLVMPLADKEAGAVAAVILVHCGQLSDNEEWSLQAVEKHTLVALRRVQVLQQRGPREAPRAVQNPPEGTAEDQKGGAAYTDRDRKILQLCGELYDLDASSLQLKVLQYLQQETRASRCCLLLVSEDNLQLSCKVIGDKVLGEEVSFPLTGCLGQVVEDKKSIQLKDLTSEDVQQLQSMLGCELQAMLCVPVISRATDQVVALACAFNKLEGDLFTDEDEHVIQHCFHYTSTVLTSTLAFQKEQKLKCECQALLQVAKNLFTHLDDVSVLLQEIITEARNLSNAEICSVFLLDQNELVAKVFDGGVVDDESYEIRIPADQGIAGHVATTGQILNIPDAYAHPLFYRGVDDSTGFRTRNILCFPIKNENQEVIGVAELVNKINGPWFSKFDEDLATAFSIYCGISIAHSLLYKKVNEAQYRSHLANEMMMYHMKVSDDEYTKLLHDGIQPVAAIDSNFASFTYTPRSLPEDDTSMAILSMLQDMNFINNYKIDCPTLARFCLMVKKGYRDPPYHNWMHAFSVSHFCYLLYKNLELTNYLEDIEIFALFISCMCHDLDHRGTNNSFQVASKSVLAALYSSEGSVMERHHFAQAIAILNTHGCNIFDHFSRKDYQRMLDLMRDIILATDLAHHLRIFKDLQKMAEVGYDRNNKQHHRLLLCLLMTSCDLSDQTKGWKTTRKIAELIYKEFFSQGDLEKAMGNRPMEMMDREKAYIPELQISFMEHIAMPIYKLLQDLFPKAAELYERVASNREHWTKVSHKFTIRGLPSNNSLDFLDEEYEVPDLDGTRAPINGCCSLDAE", "experiment": "Test for PDE activity, inhibition of cytosolic cGMP-stimulated PDE II from human myocardium", "format": "biochemical", "text": "(§1) Samples of the left ventricular papillary muscles were obtained with the consent of patient who underwent an exchange of a mitral flap in the Universitats-Krankenhaus Gieβen, FRG. The myocardium samples of pigs (male pigs of the German breed of swine, 25 to 30 kg body weight) were obtained following excision of the hearts under Nembutal anesthesia. The samples were immediately frozen in liquid nitrogen and were then pulverized in a high speed mill and pre-cooled in liquid nitrogen. […] All of the following steps were conducted at 4° C. The homogenate was centrifuged at 48,000 g for 30 minutes. […] The column was washed with 200 ml of buffer; and the PDE activities were eluted with a linear gradient ranging from 0.05 to 1 M of sodium acetate in buffer (flow time of the gradient: 500 minutes). The flow rate was 1 ml/min. 5 ml fractions were obtained and tested for PDE activity.\n(§2) The PDE activity was measured with an off line liquid scintillation spectrometry using HPLC. […] The enzyme activity was measured at 25° C. with 10 minute incubations. The reaction was started with the addition of 50 μl of enzyme solution and terminated through injection of 20 μl of 60% perchloric acid. Aliquots of 20 μl of acidic supernatant were siphoned off and injected into an automated HPLC system (column LiChrospher RP-18e) (250×4 mm; 5 μm packing).\n(§3) The data were fitted with four parameters with the aid of the sigmoidal logistic function.\n(§4) The soluble PDE isoenzymes from swine and human myocardium were severed by means of anion exchange chromatography using DEAE-sepharose CL-6B. The enzyme activities were called PDE I to IV according to the nomenclature of J. A. Beavo and D. H. Reifsnyder. The PDE II activity was stimulated by means of cGMP (1 μM)."}, "[3]": {"tested_on": "adenosine deaminase", "details": "ADA and cGMP-stimulated PDE"}, "[4]": {"tested_on": "ADA", "details": "in words; cited from earlier work"}, "[5]": {"biological_target": "adenosine deaminase", "details": "cited from earlier work; for inhibition of adenosine deaminase: in words"}, "[6]": {"biological_target": "T2, cGMP-stimulated PDE II (Sus scrofa, UniProt F1SUV3)", "T2 construct": "soluble cGMP-stimulated PDE II from swine myocardium; from tissue; host or cells: myocardium of male German breed swine, soluble extract, DEAE-Sepharose CL-6B peak fraction", "T2 sequence (F1SUV3 1-945)": "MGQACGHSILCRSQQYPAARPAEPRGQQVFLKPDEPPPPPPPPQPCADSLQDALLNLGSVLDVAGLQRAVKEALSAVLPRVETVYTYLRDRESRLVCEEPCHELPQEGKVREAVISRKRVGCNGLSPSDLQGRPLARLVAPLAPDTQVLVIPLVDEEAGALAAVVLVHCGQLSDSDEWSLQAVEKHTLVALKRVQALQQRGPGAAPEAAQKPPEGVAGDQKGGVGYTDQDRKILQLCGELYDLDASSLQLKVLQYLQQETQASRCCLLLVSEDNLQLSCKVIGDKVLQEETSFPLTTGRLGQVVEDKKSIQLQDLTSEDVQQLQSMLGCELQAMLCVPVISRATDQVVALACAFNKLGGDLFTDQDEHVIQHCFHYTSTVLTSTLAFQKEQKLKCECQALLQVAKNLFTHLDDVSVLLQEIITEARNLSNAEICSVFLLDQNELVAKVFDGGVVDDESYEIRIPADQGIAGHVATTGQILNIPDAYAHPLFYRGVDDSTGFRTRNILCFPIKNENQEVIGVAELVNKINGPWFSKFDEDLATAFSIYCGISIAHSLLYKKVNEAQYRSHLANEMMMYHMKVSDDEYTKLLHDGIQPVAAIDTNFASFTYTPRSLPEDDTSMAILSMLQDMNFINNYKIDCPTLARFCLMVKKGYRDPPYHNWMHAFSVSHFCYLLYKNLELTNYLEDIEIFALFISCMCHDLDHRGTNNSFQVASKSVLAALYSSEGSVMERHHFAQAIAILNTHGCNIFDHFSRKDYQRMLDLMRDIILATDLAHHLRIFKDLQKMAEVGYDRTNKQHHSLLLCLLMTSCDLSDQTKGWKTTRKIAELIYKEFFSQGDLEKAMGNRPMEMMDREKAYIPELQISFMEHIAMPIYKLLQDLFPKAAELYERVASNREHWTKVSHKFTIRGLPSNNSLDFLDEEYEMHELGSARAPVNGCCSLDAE", "experiment": "Test for PDE activity, inhibition of soluble cGMP-stimulated PDE II from swine myocardium", "format": "biochemical", "details": "1 μM cAMP or cGMP substrate, 25° C., pH 7.5", "text": "(§5) Samples of the left ventricular papillary muscles were obtained with the consent of patient who underwent an exchange of a mitral flap in the Universitats-Krankenhaus Gieβen, FRG. The myocardium samples of pigs (male pigs of the German breed of swine, 25 to 30 kg body weight) were obtained following excision of the hearts under Nembutal anesthesia. The samples were immediately frozen in liquid nitrogen and were then pulverized in a high speed mill and pre-cooled in liquid nitrogen. The frozen tissue powder was sieved through a screen made of stainless steel (-196° C.) (mesh size: 0.315 mm) in an homogenizing buffer (4° C.) (1 ml per 100 mg of powder), comprising (final concentrations): 20 mM of bis-tris, 2 mM of EDTA, 5 mM of 2-mercaptoethanol, 2 mM of benzamidine, 50 μM of phenylmethylsulfonylfluoride, 50 mM of sodium acetate, pH 6.5. All of the following steps were conducted at 4° C. The homogenate was centrifuged at 48,000 g for 30 minutes. […]\n(§6) The PDE activity was measured with an off line liquid scintillation spectrometry using HPLC. […] The enzyme activity was measured at 25° C. with 10 minute incubations. […]\n(§7) The radioactive substrates and the products of the PDE reaction were determined quantitatively using a RACKBETA 1219 liquid scintillation counter (LKB Wallac, Freiburg, FRG). […]"}, "[7]": {"tested_on": "other cyclic nucleotide phosphodiesterases", "experiment": "Test for PDE activity, inhibition of the other cyclic nucleotide phosphodiesterases from swine myocardium", "format": "biochemical", "details": "1 μM cAMP or cGMP substrate, 25° C., pH 7.5", "text": "as §5, §6, §7"}, "[8]": {"tested_on": "PDE I", "experiment": "Test for PDE activity, inhibition of soluble PDE I from human myocardium", "format": "biochemical", "details": "1 μM cAMP or cGMP substrate, 25° C., pH 7.5", "text": "as §5, §6, §7"}, "[9]": {"details": "cited from earlier work"}, "[10]": {"tested_on": "cGMP content of the rat aorta", "details": "as a function of the dose; cited from earlier work"}, "[11]": {"tested_on": "mouse, rat and rabbit", "details": "cited from earlier work"}, "[12]": {"tested_on": "arrhythmias", "experiment": "Antiarrhythmic action", "details": "in words; no test data given"}, "[13]": {"tested_on": "cGMP-stimulated PDE II", "experiment": "Test for PDE activity, inhibition of cytosolic cGMP-stimulated PDE II from human myocardium", "format": "biochemical", "details": "cGMP 1 μM; in words; swine and human myocardium", "text": "as §1, §2, §3, §4"}},
  "note": "Where two headings read alike, the source gives them in different places.",
  "data": [
    {"smiles": "CCCCCC[C@H]([C@H](C)O)n1cnc2c(N)ncnc21", "note": "(relative stereo) [EHNA, erythro-9-(2-hydroxy-3-nonyl)-adenine]", "values": [
      {"measurement": "Ki", "setting": "[1]", "result": 4, "unit": "nM"},
      {"measurement": "inhibition of the cGMP-stimulated enzyme at the concentration at which inhibition of the PDE isotypes I, III and IV began", "setting": "[2]; human myocardium", "result": "more than 99%"},
      {"measurement": "IC50", "setting": "[2]; human myocardium, 1 μM cAMP or cGMP substrate, 25° C., pH 7.5", "result": 800, "unit": "nM"},
      {"measurement": "activity as inhibitor of PDE II compared with papaverine, on a molar basis", "setting": "[2]; in words", "result": "more active"},
      {"measurement": "doses having inhibiting effects on both enzymes (adenosine deaminase and cGMP-stimulated PDE)", "setting": "[3]", "result": "more than 10^-7 M"},
      {"measurement": "concentrations of EHNA required to inhibit ADA in intact cells", "setting": "[4]", "result": "much higher concentrations"},
      {"measurement": "Ki", "setting": "[5]; classical competitive inhibition, first bonding step, read-out: inhibition constant K1 of the initial bonding step", "result": 200, "unit": "nM"},
      {"measurement": "Ki", "setting": "[5]; fixed enzyme-inhibitor complex after rearrangement, read-out: total inhibition constant", "result": 1.7, "unit": "nM"},
      {"measurement": "inhibition of adenosine deaminase", "setting": "[5]", "result": "inhibiting effects both on adenosine deaminase and cGMP-stimulated PDE"},
      {"measurement": "IC50", "setting": "[6]", "result": 2000, "unit": "nM"},
      {"measurement": "IC50", "setting": "[7]", "result": "> 100000", "unit": "nM"}
    ]},
    {"smiles": "CCCOc1ccccc1-c1nc2nn[nH]c2c(=O)[nH]1", "note": "[2-o-propoxyphenyl-8-azapurine-6-one, 1,4-dihydro-5-(2-propoxyphenyl-7H-1,2,3-triazolo[4,5-d]pyrimidine-7-one)]", "values": [
      {"measurement": "IC50", "setting": "[8]", "result": 8000, "unit": "nM"},
      {"measurement": "solubility in acetone and ethanol and weakly basic solutions", "setting": "[9]; acetone and ethanol and weakly basic solutions", "result": "dissolves in acetone and ethanol and weakly basic solutions"},
      {"measurement": "solubility in water", "setting": "[9]; water", "result": "slightly soluble in water"},
      {"measurement": "effect on cGMP content of the rat aorta", "setting": "[10]", "result": "raises the cGMP content"},
      {"measurement": "inhibition of adenosine deaminase", "setting": "[5]", "result": "does not inhibit the adenosine deaminase"},
      {"measurement": "acute oral LD50", "setting": "[11]; in vivo, po", "result": "1,400-2,000 mg/kg"},
      {"measurement": "toxicity", "setting": "[11]; in words", "result": "low toxicity"},
      {"measurement": "antiarrhythmic action", "setting": "[12]", "result": "strong antiarrhythmic agents"}
    ]},
    {"smiles": "Nc1ncnc2c1ncn2[C@@H]1O[C@H](CO)[C@@H](O)[C@H]1O", "note": "[adenosine]", "values": [
      {"measurement": "Km", "setting": "[5]; substrate of adenosine deaminase", "result": 20, "unit": "µM"}
    ]},
    {"smiles": "Nc1nc2c(ncn2[C@@H]2O[C@@H]3COP(=O)(O)O[C@H]3[C@H]2O)c(=O)[nH]1", "note": "[cGMP]", "values": [
      {"measurement": "effect of cGMP on PDE II activity", "setting": "[13]", "result": "stimulated"}
    ]}
  ]
}
